Experimental findings from PubChem BioAssay (NCI) are described below.

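Where inhibition never reached the appropriate level, the endpoint shown equals the highest concentration tested. Otherwise, values were interpolated linearly from a five-concentration, 48-hour dose response in 96-well plates. Here, GI50 denotes the concentration required for 50% inhibition of growth. At the TGI there is no net growth.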

What all share (assay): growth of human tumour cells (NCI), 48 h
Experiment [1] relates to EKVX NSCLC.
In experiment [2] the test system is MALME-3M melanoma.
Experiment [3] concerns MCF7 breast.
In experiment [4] the test system is NCI-H226 lung.
Experiment [5] deals with OVCAR-4 ovarian.
Experiment [6] deals with SW-620 colon.
The subject of experiment [7] is U251 CNS.
Experiment [8] concerns UACC-257 melanoma.
Experiment [9] has as its system UO-31 renal.
Experiment [10] relates to LOX IMVI melanoma.

For `O=NNc1nc(-c2ccccn2)nc2ccccc12`, the TGI in [1] was over 100 µM; in experiment [2], 19.6 µM; in experiment [3], over 100 µM; in experiment [4], 62.5 µM; in [5] it was over 100 µM; in experiment [6], 27.7 µM. Also, the TGI in [7], in [8] and in experiment [9] was over 100 µM each time.

Regarding `Cn1c(=O)c(Oc2ccc(F)cc2F)cc2cnc(NC3CCC(O)CC3)nc21` (stereo unspecified), the GI50 in experiment [10], in experiment [2], in experiment [3], in [4], in experiment [5] and in experiment [6] was over 25 µM throughout. Besides, the GI50 is over 25 µM in experiment [7], over 25 µM in experiment [8] and 12.1 µM in [9]. In addition, the TGI in [10], in experiment [2], in experiment [3], in experiment [4], in experiment [5] and in experiment [6] was over 25 µM throughout. Further, the TGI in [7], in experiment [8] and in experiment [9] was over 25 µM each time.

Take `CCc1c[nH]c2ncnc(N3CC[C@](N)(CNC(=O)c4ccc(F)cc4F)C3)c12`: the GI50 in experiment [10] was 26.2 µM; in [2], 3.4 µM; in experiment [3], 0.716 µM; in experiment [4] it was 5.75 µM; in experiment [5], 53.1 µM; in experiment [6], 23.1 µM. The GI50 in experiment [7] is 0.76 µM; in experiment [8], 9.22 µM; in [9] it was 1.52 µM. Moreover, the TGI was over 100 µM in experiment [10]; 39.5 µM in experiment [2]; over 100 µM in experiment [3]; over 77.7 µM in experiment [4]; over 100 µM in experiment [5]; over 100 µM in experiment [6]. For the same compound, the results for the TGI in experiment [7], in experiment [8] and in [9] were over 100 µM, over 100 µM and 47.6 µM, respectively.

Take `CC(=O)Nc1ccc(C(=O)NN2C(=O)CSC2c2ccccc2)cc1` (stereo unspecified): the TGI in [1], in experiment [3], in experiment [4], in experiment [5], in experiment [6] and in experiment [7] was over 100 µM throughout. Further, the TGI in [8] and in experiment [9] was over 100 µM throughout.

With `O=C(Nc1cccc(C(F)(F)F)c1)Nc1ccc(OCc2nnc(-c3ccccc3)o2)c(F)c1`, the GI50 is 4.58 µM in experiment [10]; 3.35 µM in [2]; 4.21 µM in experiment [3]; 10.7 µM in experiment [4]; 4 µM in [5]; 4.08 µM in experiment [6]. Also, the results for the GI50 in [7], in experiment [8] and in experiment [9] were 3.73 µM, 6.38 µM and 3.11 µM, respectively. The TGI is 25.6 µM in experiment [10]; 24.4 µM in experiment [3]; 52 µM in [4]; 30.1 µM in experiment [5]; over 100 µM in experiment [6]; 19.6 µM in experiment [7]. The TGI in experiment [8] turned out to be 37.9 µM; in [9] it was 21 µM.

In the case of `N#Cc1c(N/N=C/c2c(Cl)cccc2Cl)nc(N)nc1N1CCCC1`, the GI50 was 39.7 µM in experiment [1]; 2.16 µM in experiment [10]; 5.8 µM in [3]; 11.8 µM in experiment [4]; over 100 µM in experiment [5]; 1.38 µM in [6]. Besides, the GI50 in experiment [7] is 2.51 µM; in [9], 5.36 µM. Besides, the TGI in experiment [1], in experiment [10], in experiment [3], in [4], in experiment [5] and in [6] was over 100 µM in each case. For the same compound, the TGI in [7] and in experiment [9] was over 100 µM in each case.

Turning to `CC1=C(C(=O)OC(C)(C)C)C(c2ccc([N+](=O)[O-])cc2)C(C(=O)OC(C)(C)C)=C(C)N1`, the TGI in experiment [1] is 38.4 µM; in experiment [10] it was 32.9 µM; in experiment [3] it was 31.8 µM; in experiment [4], 39.1 µM; in [5] it was 37.4 µM; in experiment [6] it was 54 µM. For the same compound, the TGI was 39.3 µM in experiment [7], 40.6 µM in experiment [8] and 33.5 µM in experiment [9].

`O=C(/C=C/N1CCN(c2cccc(Cl)c2)CC1)c1ccc(Cl)cc1`: the GI50 in experiment [1] is 25.9 µM; in experiment [10], 32.3 µM; in experiment [2], 4.89 µM; in experiment [3] it was 29.7 µM; in [5], over 100 µM; in experiment [6], 30 µM. The GI50 was 42.1 µM in experiment [7], 23.8 µM in experiment [8] and 31.5 µM in experiment [9]. Also, the TGI is 85.3 µM in experiment [1]; 96.9 µM in experiment [10]; 26.4 µM in experiment [2]; over 100 µM in experiment [3]; over 100 µM in experiment [5]; 99.3 µM in experiment [6]. Moreover, the TGI in [7] was over 100 µM; in [8], 63.5 µM; in experiment [9] it was over 100 µM.

As to `COc1cc(-c2nn(-c3cccc(NC(=O)c4cccc(C(F)(F)F)c4)c3)cc2-c2ccncc2)ccc1Cl`, the GI50 in experiment [10] is 1.39 µM; in experiment [2], 1.89 µM; in [3], 1.43 µM; in experiment [4], 1.66 µM; in [5], 2.28 µM; in [6], 2.31 µM. Also, the GI50 in [7] is 1.62 µM; in experiment [8], 27.9 µM; in experiment [9], 0.969 µM. The TGI is over 50 µM in [10]; over 50 µM in experiment [2]; over 50 µM in experiment [3]; 27 µM in experiment [4]; over 50 µM in [5]; over 50 µM in [6]. Further, the TGI in [7], in [8] and in [9] was over 50 µM throughout.
